molecular target: Macrophage colony-stimulating factor 1 receptor (Homo sapiens, UniProt P07333); assay: In Vitro CSF-1R Kinase Activity: The CSF-1R construct corresponds to recombinant human catalytic domain (aa 538-910), which was purchased from Invitrogen (cat #PV4092). CSF-1R was mixed with peptide substrate (biotin-TYR1, Sequence: Biotin-(Ahx)-GAEEEIYAAFFA-COOH, 4 μM final) at varying inhibitor concentrations in reaction buffer: 50 mM MOPSO pH 6.5, 10 mM MgCl2, 2 mM MnCl2, 2.5 mM DTI, 0.01% BSA, 0.1 mM Na3VO4 and 0.1 mM ATP. After about 60 min incubation at rt, the reaction was quenched by addition of EDTA (final concentration: 100 mM) and developed by addition of detection reagents (final approximate concentrations: 30 mM HEPES pH 7.0, 0.06% BSA, 0.006% Tween-20, 0.24 M KF, 80 ng/mL PT66K (europium labeled anti-phosphotyrosine antibody cat #61T66KLB Cisbio, Bedford, Mass.) and 0.6 μg/mL SAXL (Phycolink streptavidin-allophycocyanin acceptor, cat #PJ25S, Prozyme, San Leandro, Calif.). The developed reaction was incubated in the dark for about 60 min at rt, then read via a time-resolved fluorescence detector (Rubystar, BMG) using a 337 nm laser for excitation and monitoring emission wavelength at 665 nm. Within the linear range of the assay, the observed signal at 665 nm was directly related to phosphorylated product and can be used to calculate the IC50 values.
Sequence (P07333 whole entry, the tested form may be a part): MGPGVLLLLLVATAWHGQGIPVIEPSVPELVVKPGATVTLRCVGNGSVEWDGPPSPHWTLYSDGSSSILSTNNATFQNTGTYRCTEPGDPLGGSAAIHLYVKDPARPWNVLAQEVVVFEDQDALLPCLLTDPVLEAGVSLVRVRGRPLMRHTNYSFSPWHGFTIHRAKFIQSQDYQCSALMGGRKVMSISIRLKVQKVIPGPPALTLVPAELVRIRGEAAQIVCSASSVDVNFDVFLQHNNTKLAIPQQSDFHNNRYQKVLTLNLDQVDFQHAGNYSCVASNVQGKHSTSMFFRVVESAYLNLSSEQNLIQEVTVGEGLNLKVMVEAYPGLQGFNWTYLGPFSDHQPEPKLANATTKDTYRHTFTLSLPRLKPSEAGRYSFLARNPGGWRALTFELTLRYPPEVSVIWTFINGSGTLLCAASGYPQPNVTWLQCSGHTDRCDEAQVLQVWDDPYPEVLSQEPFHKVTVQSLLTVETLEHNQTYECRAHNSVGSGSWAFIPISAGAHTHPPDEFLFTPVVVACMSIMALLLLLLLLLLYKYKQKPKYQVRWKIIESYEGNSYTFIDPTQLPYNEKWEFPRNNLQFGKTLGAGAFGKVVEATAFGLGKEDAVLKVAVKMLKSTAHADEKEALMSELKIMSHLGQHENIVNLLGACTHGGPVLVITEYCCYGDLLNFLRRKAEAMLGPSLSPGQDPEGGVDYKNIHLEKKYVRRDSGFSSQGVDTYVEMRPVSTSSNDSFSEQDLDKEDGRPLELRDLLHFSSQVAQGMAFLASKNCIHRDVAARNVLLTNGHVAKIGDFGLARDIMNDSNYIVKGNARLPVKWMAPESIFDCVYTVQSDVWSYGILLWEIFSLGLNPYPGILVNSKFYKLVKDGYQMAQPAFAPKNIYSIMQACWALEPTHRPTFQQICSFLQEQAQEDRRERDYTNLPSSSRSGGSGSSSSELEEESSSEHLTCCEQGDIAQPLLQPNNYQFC

IC50 [nM]	Structure (SMILES)
< 100	CC1(C)CC(n2cc(Nc3nc(C4CCCCC4)cn4ncnc34)cn2)CC(C)(C)O1
< 100	O[C@H]1CC[C@@H](n2cc(Nc3nc(C4CCCCC4)cn4ncnc34)cn2)CC1
< 100	O[C@H]1CC[C@H](n2cc(Nc3nc(C4CCCCC4)cn4ncnc34)cn2)CC1

Source: ChEMBL document CHEMBL5726902, “Heterocyclic kinase inhibitors” (2019)
